Experimental data as given in patent US9296687B2, “Modulators of HSP70/DnaK function and methods of use thereof” (The Trustees of the University of Pennsylvania, priority 2008, dated 2016).
Entries after “also recorded” stand apart in the source; their conditions may differ.

Key:
Eμ-Myc transgenic mice = assay: Eμ-Myc mouse model of lymphomagenesis; format: in vivo; settings: 20 mg/kg weekly i.p. from 6 weeks of age
Procedure: To evaluate the efficacy of PES as a chemopreventative agent, Eμ-Myc transgenic mice were injected every 5 days, starting at 8 weeks of age, with either vehicle or PES (40 mg/kg) prepared in PBS. All animals received a total of 7 injections, either with PES or vehicle. Consequently, no injection was given after day 86. All mice were observed daily for signs of morbidity and the development of lymphoma. All experiments with mice were approved by, and conformed to, the guidelines of the Institutional Animal Care and Use Committee of the Fox Chase Cancer Center. These mice may also be used to advantage to test the beneficial therapeutic combinations of agents and/or treatments described herein.
Beginning at 6 weeks of age, Eμ-myc transgenic mice were treated either with vehicle, 20 mg/kg PES or 20 mg/kg PES-Cl with weekly i.p. injections of tested compound (FIG. 27).

H1299 and FaDu cells = assay: Western blot of autophagy and apoptosis markers; format: cell-based, human; settings: 10 μM, 24, 48 and 72 hours
Procedure: Tumorogenic cells H1299 and FaDu cells were seeded in 10 cm plates and were treated with 10 μM PES or 10 μM PES-Cl. DMSO treated cells were used as a vehicle treated control. Twenty-four, 48 and 72 hours post-treatment the cells were scrapped and protein extracts were generated. Western blotting was performed as described hereinabove. The antibodies used in the protocol were p62 (Santa Cruz), Hsp70 (Cell Signaling), cleaved lamin A (Cell Signaling), Hsp40 (Cell Signaling), γH2A.X (Millipore), and actin (Sigma).

FADU cells = assay: Guava Nexin assay (Annexin V / 7-AAD); format: cell-based, human; settings: 10 μM, 24, 48 and 72 hours
Excerpt: (§1) The effect of PES-Cl on apoptosis was observed using Guana Nexin Reagent (Millipore) in H1299 and FaDu cells. The Guana Nexin Assay utilizes Annexin V-PE to detect phosphatidylserine (PS) on the external membrane of apoptotic cells. The cell impermeant dye, 7-AAD, is also used in the Guava Nexin Assay as an indicator of cell membrane structural integrity. 7-AAD is excluded from live, healthy cells as wells as early apoptotic cells. Three populations of cells can be distinguished in the assay: Non-Apoptotic cells (Annexin V(−) and 7-AAD(−)), Early Apoptotic cells (Annexin V(+) and 7-AAD(−)), and Late Stage Apoptotic and dead cells (Annexin V(+) and 7-AAD(+)). The H1299 and FaDu cells were seeded on 24-well plates and treated with 10 μM PES or 10 μM PES-Cl. DMSO treated cells were used as a vehicle control. Four, 24 and 48 hours post-treatment, the H1299 cells were washed with PBS and trypsinized. For FaDu cells, the time course was 24, 48 and 72 hours. The cells were pelleted and resuspended in Guava Nexin reagent as per the manufacturer instructions and the readings were obtained with a Guava reader (Guava Technologies, Millipore). The total number of cells that were in Late Stage Apoptosis or dead (by necrotic or apoptotic mechanisms) was analyzed in density plots to determine as Annexin V positive.

H1299 cells [1] = assay: Guava Nexin assay (Annexin V / 7-AAD); format: cell-based, human; settings: 10 μM, 4, 24 and 48 hours
Excerpt: as §1

[2] = test system: H1299 and FaDu; 6113 and WI38; assay: MTT assay, tumorogenic versus normal fibroblast cell lines; format: cell-based, human; settings: various concentrations, 48 hours
Procedure: (§2) H1299 cells were seeded on […] and treated with 10 μM PES or 10 μM PES-Cl. DMSO treated cells were used as a control and the proliferation of the H1299 cells was observed over 24 and 48 hours of treatment. The cells were imaged by light microscopy with 20× magnification (FIG. 28). Non-tumorogenic and tumorogenic cells were then treated with PES-Cl to observe its toxicity and effect on proliferation. Two tumorogenic cell lines (H1299 and FaDu) and two normal fibroblast cell lines (6113 and WI38) were seeded on a 96-well plate. The cells were treated with various concentrations of PES and PES-Cl. Forty-eight hours post-treatment MTT assays (Cayman Chemical Company) were performed (FIG. 29).

H1299 cells [3] = assay: Proliferation observed by light microscopy; format: cell-based, human; settings: 10 μM, 24 and 48 hours
Procedure: as §2

[4] = test system: SKBR3 human breast adenocarcinoma cells; assay: MTT assay; format: cell-based; settings: various concentrations, 72 hours
Procedure: SKBR3 human breast adenocarcinoma cells were seeded and treated with PES and PES-Cl at various concentrations.

Scc56 cell line = assay: MTT cell viability assay, PES-Cl with Temsirolimus; format: cell-based, human; settings: singly and together, varying concentrations
Procedure: PES-Cl was tested in combination with Temsirolimus, an mTOR inhibitor, to determine whether they act synergistically to kill cells. Head and neck cancer cells of the Scc56 cell line were treated with PES-Cl and Temsirolimus, singly and together, at varying concentrations utilizing an MTT assay.

HSP70 = HSP70 (Homo sapiens, UniProt P0DMV8); assay: Capture of HA-tagged HSP70 constructs from transfected H1299 cells with biotinylated compound; format: binding; set-up: expressed in transfected cells; host or cells: H1299; settings: biotinylated compound, 6 hours
Procedure: FIG. 1. PES Binds to HSP70. (A) Whole cell extracts (WCE) prepared from A875 and BCL-xL over-expressing U2OS human osteosarcoma cells (BX-U2OS) cells, treated with Biotin or Biotin-PES (B-PES), were captured using NeutrAvidin agarose resins. HSP70-family proteins were identified as the major product in the excised band of ˜70 kDa shown in both Coomassie gels. (B and C) WCE were prepared from the cell lines indicated following 24 h treatment with 20 μM Biotin or B-PES and examined for the expression of proteins indicated (left panel of B and C) by western blot analysis; note that different exposure times were used to visualize these proteins. […] (D) In vitro evidence for an interaction between B-PES and HSP70. Full-length human HSP70 and human HSP90 proteins were in vitro translated in the presence of ^35S-methionine, mixed with B-PES coupled to NeutrAvidin resins, and eluted using 100 mM DTT. The resulting DTT eluates were separated by polyacrylamide gel electrophoresis (SDS-PAGE) and visualized by autoradiography. (E) B-PES interacts with the C-terminal region of HSP70. H1299 cells were transfected with the indicated hemagglutinin (HA)-tagged constructs and exposed to B-PES. B-PES containing complexes were captured by NeutrAvidin Resins, eluted following 100 mM DTT treatment, and immunoblotted with anti-HA antibody following SDS-PAGE. (F) Non-transformed human IMR90 fibroblasts or H1299 lung carcinoma cells were treated with the indicated concentrations of PES for 24 h and cell viability was determined by MTT assays. (G) WCE were prepared from the cell lines indicated following 5 hr treatment with 20 μM PES or B-PES and examined for the expression of proteins indicated (left panel) by western blot analysis; note that different exposure times were used to visualize these proteins. B-PES-containing complexes were captured by NeutrAvidin resins, eluted following 50 mM DTT treatment, and immunoblotted using the indicated antibodies.
The free amide group of PES-Cl was biotinylated and added to HA-tagged HSP70-transfected H1299 cells. The treatment of the cells occurred for 6 hours. The complexes were pulled down with NeutrAvidin beads, eluted with 100 mM DTT treatments, separated with SDS-PAGE and detected with anti-HA antibody (Millipore) by Western blot.
Docking studies were performed using the C-terminal HSP70 crystal structure (FIG. 32) to elucidate the PES binding site in silico (FIG. 33). Blind docking methods were used in the program AutoDock to locate potential PES binding sites. These methods use a course grid docking approach, encompassing the entire protein, to identify favorable binding sites using a known binding ligand, and are examined by hand to support the AutoDock data. […]

HSP70, sequence (P0DMV8 2-641): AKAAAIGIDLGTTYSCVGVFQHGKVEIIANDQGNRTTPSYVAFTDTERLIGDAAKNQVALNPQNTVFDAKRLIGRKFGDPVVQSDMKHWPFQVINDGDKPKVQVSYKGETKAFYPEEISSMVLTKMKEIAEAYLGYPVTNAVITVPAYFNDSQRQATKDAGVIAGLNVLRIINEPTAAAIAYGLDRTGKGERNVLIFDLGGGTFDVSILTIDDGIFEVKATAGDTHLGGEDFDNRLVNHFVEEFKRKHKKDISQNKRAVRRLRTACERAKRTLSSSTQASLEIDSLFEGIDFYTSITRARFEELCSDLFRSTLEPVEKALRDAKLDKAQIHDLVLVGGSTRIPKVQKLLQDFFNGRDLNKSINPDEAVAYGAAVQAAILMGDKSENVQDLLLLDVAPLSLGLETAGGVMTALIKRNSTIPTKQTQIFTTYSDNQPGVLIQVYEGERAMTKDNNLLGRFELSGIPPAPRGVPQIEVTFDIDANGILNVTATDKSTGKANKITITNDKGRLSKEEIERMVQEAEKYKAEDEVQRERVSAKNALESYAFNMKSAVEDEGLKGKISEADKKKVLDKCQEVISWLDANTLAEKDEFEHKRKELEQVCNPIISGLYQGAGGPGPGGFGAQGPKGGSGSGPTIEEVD

NS(=O)(=O)C#Cc1cccc(Cl)c1 [PES-Cl, 2-(3-chlorophenyl)-ethynesulfonamide]
survival (Eμ-Myc transgenic mice): extended survival
apoptosis (H1299 and FaDu cells): induced apoptosis
autophagy (H1299 and FaDu cells): inhibited autophagy
apoptosis and cell death (Annexin V positive cells) (FADU cells): induced apoptosis and cell death; also recorded: superior compound for induction of apoptosis
apoptosis and cell death (Annexin V positive cells) (H1299 cells [1]): induced apoptosis and cell death; also recorded: superior compound for induction of apoptosis
cell survival, tumorogenic versus non-tumorogenic cells [2]: greater concentration dependent effect on cell survival in tumorogenic cells; also recorded: superior and specific inhibitor of proliferation of tumor cells with limited toxicity to normal cells
proliferation (H1299 cells [3]): inhibits the proliferation of H1299 cells
cytotoxicity compared to PES [4]: superior cytotoxic agent when compared to PES
combination effect with Temsirolimus (Scc56 cell line): synergistic effect resulting in enhanced dose-dependent cytotoxicity
interaction with HA-tagged HSP70 (HSP70): interact with HSP70
